ChEMBL document CHEMBL1955771, “VX-322: a novel dual receptor tyrosine kinase inhibitor for the treatment of acute myelogenous leukemia” (J Med Chem, 2012)
pIC50, pKi: −log10 of the molar value.

Key:
MV4-11 [1] = assay: Induction of apoptosis in human MV4-11 cells at 100 nM assessed as apoptotic cells after 24 hrs by annexin V and propidium iodide staining method (reference value: […]); type: functional
[2] = molecular target: T1, Receptor-type tyrosine-protein kinase FLT3 (Homo sapiens, UniProt P36888, ITD); assay: Inhibition of FLT3 ITD mutant mediated ERK 1/2 phosphorylation in human MV4-11 cells by immunoblot analysis; type: cell-based
T1 sequence (P36888 whole entry, looked up, change not shown): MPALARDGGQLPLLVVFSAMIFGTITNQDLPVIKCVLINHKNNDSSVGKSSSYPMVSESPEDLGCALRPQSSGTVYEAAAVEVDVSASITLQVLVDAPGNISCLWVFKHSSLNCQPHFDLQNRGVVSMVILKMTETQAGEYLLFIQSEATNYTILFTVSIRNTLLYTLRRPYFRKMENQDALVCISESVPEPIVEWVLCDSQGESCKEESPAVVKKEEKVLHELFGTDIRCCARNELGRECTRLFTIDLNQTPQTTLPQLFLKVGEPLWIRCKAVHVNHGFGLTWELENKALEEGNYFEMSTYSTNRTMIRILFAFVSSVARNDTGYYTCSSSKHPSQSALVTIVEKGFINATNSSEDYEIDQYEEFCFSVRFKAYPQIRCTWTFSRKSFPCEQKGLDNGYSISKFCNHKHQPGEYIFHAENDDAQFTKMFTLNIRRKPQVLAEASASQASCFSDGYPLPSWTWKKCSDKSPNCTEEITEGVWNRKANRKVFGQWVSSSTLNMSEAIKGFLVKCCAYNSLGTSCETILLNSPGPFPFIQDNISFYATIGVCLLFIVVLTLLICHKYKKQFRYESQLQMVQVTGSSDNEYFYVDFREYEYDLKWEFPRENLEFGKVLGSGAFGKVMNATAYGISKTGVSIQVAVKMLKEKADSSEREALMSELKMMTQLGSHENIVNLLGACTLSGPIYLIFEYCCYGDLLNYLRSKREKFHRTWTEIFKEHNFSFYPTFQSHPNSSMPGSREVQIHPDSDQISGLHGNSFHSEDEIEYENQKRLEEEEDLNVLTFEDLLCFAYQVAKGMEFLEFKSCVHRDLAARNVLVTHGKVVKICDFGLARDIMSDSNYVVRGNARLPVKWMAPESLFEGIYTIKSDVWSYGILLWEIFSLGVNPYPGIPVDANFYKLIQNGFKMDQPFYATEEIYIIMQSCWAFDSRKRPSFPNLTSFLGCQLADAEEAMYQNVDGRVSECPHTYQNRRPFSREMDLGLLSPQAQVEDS

[3] = molecular target: T1, Receptor-type tyrosine-protein kinase FLT3; assay: (§1) Inhibition of FLT3 ITD mutant autophosphorylation in human MV4-11 cells after 1 hr by immunoblot analysis; type: cell-based
[4] = system: Receptor-type tyrosine-protein kinase FLT3 (Homo sapiens), P36888 [UNDEFINED MUTATION]; assay: as §1; type: cell-based
Chain of Receptor-type tyrosine-protein kinase FLT3 (Homo sapiens), P36888 [UNDEFINED MUTATION] (P36888 whole entry, looked up, change not shown): as above

[5] = Half life in BALB/c mouse; type: ADME, organism-based; conditions: in vivo
[6] = molecular target: Hepatocyte growth factor receptor (Homo sapiens, UniProt P08581); assay: Inhibition of cMET
TF-1 [7] = assay: cells; conditions: Homo sapiens, TF-1, 72 h
Description: Cytotoxicity against human TF1 cells assessed as cell viability after 72 hrs by resazurin dye based fluorescence assay

cells [8] = conditions: Homo sapiens, Leukemia cell, 72 h
Description: Cytotoxicity against human primary leukemia cells isolated from acute myeloid leukemia patient expressing wild type FLT3 assessed as cell viability after 72 hrs by luciferase assay

BaF3 [9] = assay: Antitumor activity against mouse BA/F3 cells expressing FLT3-ITD mutant xenografted in BALB/c mouse myeloproliferative model assessed as increase in host survival days at 0.05 mg/kg, po qd relative to control (reference value: 20 days); type: functional, organism-based; set-up: dose 0.05 mg/kg
[10] = molecular target: T2, Tyrosine-protein kinase receptor UFO (Homo sapiens, UniProt P30530); assay: Inhibition of AXL
T2 sequence (P30530 whole entry): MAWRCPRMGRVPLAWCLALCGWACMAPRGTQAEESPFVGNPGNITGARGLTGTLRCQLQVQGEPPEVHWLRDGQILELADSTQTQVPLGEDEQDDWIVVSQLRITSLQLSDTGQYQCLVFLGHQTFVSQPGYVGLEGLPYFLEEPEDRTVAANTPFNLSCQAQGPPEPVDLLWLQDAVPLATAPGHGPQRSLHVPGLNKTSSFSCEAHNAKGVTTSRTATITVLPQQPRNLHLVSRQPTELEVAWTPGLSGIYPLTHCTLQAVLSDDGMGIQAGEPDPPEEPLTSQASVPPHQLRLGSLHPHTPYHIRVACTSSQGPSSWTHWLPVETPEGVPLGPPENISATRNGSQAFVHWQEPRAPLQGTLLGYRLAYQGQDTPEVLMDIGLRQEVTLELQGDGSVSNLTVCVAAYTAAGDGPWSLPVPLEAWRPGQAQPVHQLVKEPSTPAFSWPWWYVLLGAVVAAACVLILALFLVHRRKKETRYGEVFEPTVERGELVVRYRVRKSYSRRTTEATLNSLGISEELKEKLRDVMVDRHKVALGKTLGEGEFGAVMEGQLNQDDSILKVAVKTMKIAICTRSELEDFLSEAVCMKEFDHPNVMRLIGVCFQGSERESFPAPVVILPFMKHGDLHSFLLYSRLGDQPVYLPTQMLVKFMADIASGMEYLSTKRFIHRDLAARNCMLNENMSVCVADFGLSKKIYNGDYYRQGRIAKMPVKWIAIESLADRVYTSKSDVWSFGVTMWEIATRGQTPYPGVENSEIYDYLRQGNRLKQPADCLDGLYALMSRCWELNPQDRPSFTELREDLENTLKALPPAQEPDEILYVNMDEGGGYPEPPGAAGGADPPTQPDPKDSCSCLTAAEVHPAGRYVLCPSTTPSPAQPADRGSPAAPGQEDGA

MV4-11 [11] = assay: Induction of apoptosis in human MV4-11 cells at 100 nM assessed as prenecrotic cells after 48 hrs by annexin V and propidium iodide staining method (reference value: 91.8 %); type: functional
[12] = molecular target: T1, Receptor-type tyrosine-protein kinase FLT3; assay: Inhibition of FLT3 ITD mutant mediated Stat5 phosphorylation in human MV4-11 cells by immunoblot analysis; type: cell-based
[13] = molecular target: Vascular endothelial growth factor receptor 2 (Homo sapiens, UniProt P35968); assay: Inhibition of KDR
Chain of Vascular endothelial growth factor receptor 2 (P35968 whole entry): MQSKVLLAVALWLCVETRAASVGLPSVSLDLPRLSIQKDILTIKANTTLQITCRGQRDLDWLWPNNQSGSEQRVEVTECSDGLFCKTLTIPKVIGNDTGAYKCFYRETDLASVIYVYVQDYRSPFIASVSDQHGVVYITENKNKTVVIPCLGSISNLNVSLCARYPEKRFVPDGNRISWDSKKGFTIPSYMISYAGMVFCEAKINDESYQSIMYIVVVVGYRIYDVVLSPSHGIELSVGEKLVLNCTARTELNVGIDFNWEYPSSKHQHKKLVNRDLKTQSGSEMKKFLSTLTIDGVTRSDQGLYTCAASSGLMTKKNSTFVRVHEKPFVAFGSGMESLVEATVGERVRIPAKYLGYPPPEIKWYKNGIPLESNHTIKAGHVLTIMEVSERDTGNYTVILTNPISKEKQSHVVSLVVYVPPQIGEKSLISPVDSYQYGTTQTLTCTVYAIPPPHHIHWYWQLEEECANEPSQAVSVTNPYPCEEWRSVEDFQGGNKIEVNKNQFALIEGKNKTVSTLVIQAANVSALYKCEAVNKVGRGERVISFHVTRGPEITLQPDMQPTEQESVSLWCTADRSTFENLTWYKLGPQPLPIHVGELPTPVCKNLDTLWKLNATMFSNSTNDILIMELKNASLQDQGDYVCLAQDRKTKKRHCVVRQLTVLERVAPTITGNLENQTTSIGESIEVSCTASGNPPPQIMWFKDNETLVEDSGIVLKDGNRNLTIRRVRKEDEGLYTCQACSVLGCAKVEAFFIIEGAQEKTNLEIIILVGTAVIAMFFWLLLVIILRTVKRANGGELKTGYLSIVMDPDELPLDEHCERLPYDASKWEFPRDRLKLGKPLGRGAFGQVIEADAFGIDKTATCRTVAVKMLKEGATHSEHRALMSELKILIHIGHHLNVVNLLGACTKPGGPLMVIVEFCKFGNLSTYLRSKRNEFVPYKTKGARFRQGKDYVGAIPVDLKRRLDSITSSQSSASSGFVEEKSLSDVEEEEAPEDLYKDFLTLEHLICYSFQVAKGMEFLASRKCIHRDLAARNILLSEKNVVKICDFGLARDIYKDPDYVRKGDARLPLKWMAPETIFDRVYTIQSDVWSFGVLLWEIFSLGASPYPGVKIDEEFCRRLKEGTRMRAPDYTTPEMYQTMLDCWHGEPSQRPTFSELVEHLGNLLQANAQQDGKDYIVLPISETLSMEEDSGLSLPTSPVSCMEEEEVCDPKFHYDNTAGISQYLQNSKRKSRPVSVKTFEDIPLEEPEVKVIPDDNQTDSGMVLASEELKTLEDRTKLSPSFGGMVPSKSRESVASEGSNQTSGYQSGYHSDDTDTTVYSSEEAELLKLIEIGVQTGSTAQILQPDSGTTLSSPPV

MV4-11 [14] = assay: Induction of apoptosis in human MV4-11 cells at 100 nM assessed as prenecrotic cells after 24 hrs by annexin V and propidium iodide staining method (reference value: 90.3 %); type: functional
MV4-11 [15] = assay: cells; conditions: Homo sapiens, MV4-11, 72 h
Description: Cytotoxicity against human MV4-11 cells expressing FLT3-ITD mutation assessed as cell viability after 72 hrs by resazurin dye based fluorescence assay

MV4-11 [16] = assay: Induction of apoptosis in human MV4-11 cells at 100 nM assessed as apoptotic cells after 48 hrs by annexin V and propidium iodide staining method (reference value: 2.1 %); type: functional
Mus musculus [17] = organism: Mus musculus; assay: Toxicity in BALB/c mouse assessed as signs of anemia after 100 days; type: organism-based; conditions: in vivo, 2400 h
[18] = Oral bioavailability in BALB/c mouse; type: ADME, organism-based; conditions: in vivo
[19] = molecular target: T3, Mast/stem cell growth factor receptor Kit (Homo sapiens, UniProt P10721); assay: Inhibition of c-KIT-mediated ERK 1/2 phosphorylation in human TF1 cells at 4 to 12 nM after 1 hr by immunoblot analysis; type: cell-based, TF-1
T3 sequence (P10721 whole entry): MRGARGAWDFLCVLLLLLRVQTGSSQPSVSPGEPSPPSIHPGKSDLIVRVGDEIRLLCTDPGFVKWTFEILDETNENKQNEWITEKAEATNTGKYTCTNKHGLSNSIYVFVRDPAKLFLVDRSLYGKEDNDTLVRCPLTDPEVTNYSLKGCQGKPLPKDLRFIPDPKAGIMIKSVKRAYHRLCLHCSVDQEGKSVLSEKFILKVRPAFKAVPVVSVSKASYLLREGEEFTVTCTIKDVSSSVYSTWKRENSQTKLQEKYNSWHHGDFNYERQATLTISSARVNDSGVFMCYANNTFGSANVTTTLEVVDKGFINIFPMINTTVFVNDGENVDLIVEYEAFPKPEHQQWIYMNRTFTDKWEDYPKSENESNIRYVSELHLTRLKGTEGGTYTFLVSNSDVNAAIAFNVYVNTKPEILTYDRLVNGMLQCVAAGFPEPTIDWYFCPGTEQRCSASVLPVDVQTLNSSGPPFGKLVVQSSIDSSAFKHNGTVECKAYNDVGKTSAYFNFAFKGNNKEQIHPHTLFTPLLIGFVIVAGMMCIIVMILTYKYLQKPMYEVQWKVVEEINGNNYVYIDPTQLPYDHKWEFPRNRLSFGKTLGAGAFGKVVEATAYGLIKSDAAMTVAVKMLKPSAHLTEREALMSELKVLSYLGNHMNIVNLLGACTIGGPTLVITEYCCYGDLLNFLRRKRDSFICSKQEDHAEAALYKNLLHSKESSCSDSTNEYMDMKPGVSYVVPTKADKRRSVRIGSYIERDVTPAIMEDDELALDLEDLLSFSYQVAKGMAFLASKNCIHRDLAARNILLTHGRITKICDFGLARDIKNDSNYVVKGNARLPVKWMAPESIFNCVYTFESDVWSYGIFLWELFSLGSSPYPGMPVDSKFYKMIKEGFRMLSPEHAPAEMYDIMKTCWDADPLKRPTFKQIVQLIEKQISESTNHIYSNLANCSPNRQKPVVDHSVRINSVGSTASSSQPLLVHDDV

[20] = molecular target: Proto-oncogene tyrosine-protein kinase Src (Homo sapiens, UniProt P12931); assay: Inhibition of Src
Chain of Proto-oncogene tyrosine-protein kinase Src (P12931 2-536 limits assumed): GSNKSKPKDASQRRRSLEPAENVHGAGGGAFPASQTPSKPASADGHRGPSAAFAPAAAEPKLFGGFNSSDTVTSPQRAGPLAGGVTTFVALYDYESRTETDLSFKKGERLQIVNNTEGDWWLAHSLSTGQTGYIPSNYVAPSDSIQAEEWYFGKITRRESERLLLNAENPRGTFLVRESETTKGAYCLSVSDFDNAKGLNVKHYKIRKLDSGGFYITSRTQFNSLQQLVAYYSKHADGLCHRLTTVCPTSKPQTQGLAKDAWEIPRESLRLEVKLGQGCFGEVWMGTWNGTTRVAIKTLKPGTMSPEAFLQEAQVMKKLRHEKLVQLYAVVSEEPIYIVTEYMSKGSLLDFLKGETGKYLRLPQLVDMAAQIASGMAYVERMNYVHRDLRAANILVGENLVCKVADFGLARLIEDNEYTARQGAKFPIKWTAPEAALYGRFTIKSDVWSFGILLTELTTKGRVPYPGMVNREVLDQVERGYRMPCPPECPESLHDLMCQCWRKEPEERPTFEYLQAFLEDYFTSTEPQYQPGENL

MV4-11 [21] = assay: Induction of apoptosis in human MV4-11 cells at 100 nM assessed as late apoptotic cells after 48 hrs by annexin V and propidium iodide staining method (reference value: 3.4 %); type: functional
[22] = molecular target: T3, Mast/stem cell growth factor receptor Kit; assay: Inhibition of human recombinant c-Kit by radiometric assay
BaF3 [23] = assay: Antitumor activity against mouse BA/F3 cells expressing FLT3-ITD mutant xenografted in BALB/c mouse myeloproliferative model assessed as increase in host survival days at 1 mg/kg, po qd relative to control (reference value: 20 days); type: functional, organism-based; set-up: dose 1 mg/kg
[24] = molecular target: T3, Mast/stem cell growth factor receptor Kit; assay: Inhibition of SCF-induced phosphorylation of c-KIT in human TF1 cells after 1 hr by immunoblot analysis; type: cell-based, TF-1
cells [25] = conditions: Homo sapiens, Leukemia cell, 72 h; remark: listed apart in the source
Description: Cytotoxicity against human primary leukemia cells isolated from acute myeloid leukemia patient expressing FLT3-D835Y mutation assessed as cell viability after 72 hrs by luciferase assay

MV4-11 [26] = assay: Induction of apoptosis in human MV4-11 cells at 100 nM assessed as late apoptotic cells after 24 hrs by annexin V and propidium iodide staining method (reference value: 5.1 %); type: functional
TF-1 [27] = assay: cells; conditions: Homo sapiens, TF-1, 72 h; remark: listed apart in the source
Description: Cytotoxicity against human TF1 cells expressing FMS assessed as cell viability after 72 hrs by resazurin dye based fluorescence assay

cells [28] = conditions: Homo sapiens, Leukemia cell, 72 h; remark: listed apart in the source
Description: Cytotoxicity against human primary leukemia cells isolated from acute myeloid leukemia patient expressing FLT3-ITD mutation assessed as cell viability after 72 hrs by luciferase assay

Mus musculus [29] = assay: Plasma concentration at steady state in BALB/c mouse xenografted with BA/F3 cells expressing FLT3-ITD mutant at 1 mg/kg, po qd; type: ADME, organism-based, BaF3; set-up: dose 1 mg/kg, route oral; conditions: in vivo
TF-1 [30] = assay: cells; conditions: Homo sapiens, TF-1, 72 h; remark: listed apart in the source
Description: Cytotoxicity against human TF1 cells expressing PDGFR-beta assessed as cell viability after 72 hrs by resazurin dye based fluorescence assay

Mus musculus [31] = assay: Plasma concentration at steady state in BALB/c mouse xenografted with BA/F3 cells expressing FLT3-ITD mutant at 5 mg/kg, po qd; type: ADME, organism-based, BaF3; set-up: dose 5 mg/kg, route oral; conditions: in vivo
Mus musculus [32] = assay: Plasma concentration at steady state in BALB/c mouse xenografted with BA/F3 cells expressing FLT3-ITD mutant at 0.05 mg/kg, po qd; type: ADME, organism-based, BaF3; set-up: dose 0.05 mg/kg, route oral; conditions: in vivo

Nc1nc(Nc2ccc([C@H]3CC[C@H](N4CCOCC4)CC3)cc2)nn1-c1ccccn1
Activity (MV4-11 [1]): 8.4% | pIC50 [2]: 8.89 | pIC50 [3]: 9.40 | inhibition [4]: Dose-dependent effect | half-life [5]: 15 h | pKi [6]: 6.89 | pIC50 (TF-1 [7]): < 5.40 | pIC50 (cells [8]): 7.70 | MSD (BaF3 [9]): 24 days | pKi [10]: 7.40 | Activity (MV4-11 [11]): 28.5% | pIC50 [12]: 8.89 | pKi [13]: 7.07 | Activity (MV4-11 [14]): 54.5% | pIC50 (MV4-11 [15]): 9.70 | Activity (MV4-11 [16]): 26.3% | Activity (Mus musculus [17]): Non-toxic | bioavailability [18]: 100% | pIC50 [19]: 8.40 | pKi [20]: 6.11 | Activity (MV4-11 [21]): 42.8% | pKi [22]: > 9.00 | MSD (BaF3 [23]): 34 days | pIC50 [24]: 8.40 | inhibition ([24]; TF-1): Dose-dependent effect | pIC50 (cells [25]): 6.66 | Activity (MV4-11 [26]): 32.5% | pIC50 (TF-1 [27]): < 5.40 | pIC50 (cells [28]): 7.92 | Cpss (Mus musculus [29]): 91 ng/mL | pIC50 (TF-1 [30]): 6.48 | Cpss (Mus musculus [31]): 641 ng/mL | Cpss (Mus musculus [32]): 4 ng/mL
